From US20050019923A1, “Dendrimers for use in targeted delivery” (priority 2001, published 2005)

Test system: A431 cell line
Experiment: In vitro cytotoxicity assay (MTT)
Assay type: cell-based, human
Conditions: 4 h exposure, 72 h incubation
Procedure: A human epidermoid carcinoma cell line (A431, ATCC CRL-1555) was maintained in Dulbecco's minimum essential medium (DMEM) supplemented with 10% foetal calf serum (FCS) and 2 mM glutamine (GibcoBRL, UK) at 10% CO2 and 37° C.
Polypropylenimine dendrimer/dendrimer derivative formulation cytotoxicity was assessed by the measurement of the IC50 in a standard MTT (3-[4,5-dimethylthiazol-2-yl]-2,5-diphenyltetrazolium bromide thiazolyl blue—indicator dye) assay. Briefly, 96 well microtitre plates were seeded with 5000 cells per well and incubated for 24 hrs. Dilutions of the dendrimer/dendrimer—DNA formulations (100 μl) in tissue culture medium (Opti-Mem) were incubated with the cells for 4 h. The samples were then replaced with fresh DMEM daily and incubated for 72 h. After this period the indicator dye (50 μl, 50 mg ml^−1) was added to each well and incubated with the cells for 4 h in the dark. The medium and indicator dye were then removed and the cells lysed with dimethylsulphoxide (200 μl). After addition of Sorensen's glycine buffer (25 μl) the absorption was measured at 570 nm. Values were expressed as a percentage of the control to which no vesicles were added.

SMILES: CCCCCCCC/C=C\CCCCCCCC(=O)OCC(C[N+](C)(C)C)OC(=O)CCCCCCC/C=C\CCCCCCCC.COS(=O)(=O)[O-] (stereo not shown) [DOTAP, N-[1-(2,3-dioleoyloxy)propyl]-N,N,N-trimethylammonium methylsulphate]
- IC50, in vitro cytotoxicity: 62 µg/mL
